Here are results for 19 molecules from patent publication US9884862B2, “Pyridopyrimidinedione derivatives” (Novartis AG, priority 2014, dated 2018).

The structures appear in SMILES notation.

The test system of experiment [1] is alpha-L-Iduronidase W402X in Hurler patient derived fibroblast cells. Nature of the experiment: Hurler patient derived fibroblast cell cultures, restored alpha-L-iduronidase activity (W402X readthrough). In kind it is cell-based, human. Particulars: Homo sapiens, Fibroblast, 192 h, 8 days incubation, highest concentration 20 uM; for Emax: 14 mM paromomycin = 100% control, read-out: Amax; for AC50: 8 point dilutions. The text has this:
Activity of compounds of the present invention was examined in patient derived fibroblast cells. The genotyped cells were derived from the Coriell Institute (# GM00798) and contain an in frame homozygous TGG to TAG change at nucleotide 1293 of exon 9 which results in a W402X mutation. The W402X mutation is one of the most common Hurler syndromes causing loss of function mutation. Between 60-70% of genotyped patients contain either the Q70X and/or the W402X in mutation and are classified as severe MPSI patients. This TAG stop codon triplet is permissive to aminoglycoside mediated translational readthrough which served as activity control for compound testing. Readthrough of W402X restores alpha-L-Iduronidase activity which results in removal of lysosomal accumulated Glycosaminoglycan's. Iduronidase expression could neither be detected by Taqman PCR© nor by enzyme activity or ELISA methods without compound stimulation. Compounds were tested in concentration response mode. Therefore 5000 patient cells/40 ul/well in 384 well plates were used. Compound dilutions were derived from freshly prepared 10 mM compound stock solutions. Highest concentration was 20 uM and subsequently diluted 1: 3.16 (8 point dilutions, n=4). Final DMSO concentration was below 0.5% and tested to be without effect on cell viability, growth and readthrough. Cells were incubated for 8 days with one cell media and compound exchange at day 3. Thereafter cell media was removed and cells were lysed (0.4 M Sodiumformate, 0.1% NaN3, 0.9% NaCl, 0.2% Triton, pH 3.5). Restored alpha-L-iduronidase activity in cell lysates was measured with the fluorescent 4-MU iduronide substrate (5 ul of 0.4 mM 4 Methylumbelliferyl alpha-L-iduronide/well) after 48 h incubation. Paromomycin was used as reference control (14 mM=100% control).

Experiment [2] concerns CFTR-Y122X. Nature of the experiment: CFTR-Y122X assay (dual reporter isogenic Hek293 cell lines, Renilla luminescence readthrough). In kind it is cell-based. The following applies: Homo sapiens, HEK293, 24 h, nonsense mutation suppression, 24 h incubation, tested up to 100 μM; for Emax: 100% = 14 mM paromomycin, read-out: Amax. The text has this:
Activity of compounds of the present invention was examined in recombinant, dual reporter isogenic Hek293 cell lines (“CFTR-Y122X assay”). The engineered reporter constructs contained the 18 bp sequence stretch corresponding to a common Y122X PTC mutation in CFTR class I mutant patients (see Sermet-Gaudelus, BMC Medicine, 2007, 5(5)). Instead of a tyrosine (Y) in position 122 of the CFTR protein a TGA stop codon interrupts the open reading frame (Y122X) of the corresponding mRNA. This TGA stop codon triplet (followed by the pyrimidine base cytosine) is permissive to aminoglycoside mediated translational readthrough which served as positive control for high throughput screening. A corresponding TAA stop codon variant and a wildtype non mutated construct was used for confirmation and counter screening. The CFTR sequence was sandwiched between an eGFP reporter, and a triple myc tag sequence fused to a full length Renilla reporter. All sequences, including an intron containing one positioned pre-eGFP (b-globin intron) were cloned in frame. The corresponding expression constructs were stably expressed in the isogenic HEK-R4 cell host (Invitrogen Incorp.) and selected by blasticidin resistance. The isogenic integration of the construct minimizes gene dose effects and improves assay reproducibility. Stably integrated single cell derived clones were selected and characterized for aminoglycoside mediated readthrough. […] Readthrough of Y122X accumulates an intracellular localized fusion protein approximately 65.5 kDa in size as controlled by western blot analysis and immunofluorescence using an anti-renilla antibody. The eGFP reporter pre-PTC mutation serves as visual control for genetic stability of the screening clones and minimizes protein degradation of small fusion protein amounts. In the assay, compound concentration was 10 μM. In miniaturized 1536 well format 2000 cells were dispensed in 4 μl/well and incubated for 24 h at 37° C., 5% CO2. 40 nl compounds were placed on the cells with control wells containing 1 ul Paramomycin and 14.4 mM final concentration. Compounds were incubated for 24 h. Renilla Glo substrate (2.5 ul) was added and plates were centrifuged and processed for luminescence measurement using various readers. Activity calculation was done using the equation: A1(%)=100*(S−NC)/(AC−NC) where AC, NC and S correspond to active controls (injection of Stimulation buffer=100% stimulation), neutral controls (buffer injection which Iloprost EC10) and screening samples (S). NC corresponds to 0% activity whereas AC is 100% activity (14 mM paromomycin). False positive artifacts were removed in confirmation and validation screening using the same assay format followed by counterscreening using the respective wildtype construct (w/o PTC mutation) cell model. Compounds were tested up to 100 μM compound concentration.

Broadly, the AC50 is the concentration at which the activity in the assay is half-maximal. A low value points to activity at low concentration. For `Cc1csc2c(=O)c3c(=O)n(-c4ccccc4)c(C4CCC4)nc3n(C)c12` [Example 2.15, 2-cyclobutyl-8,9-dimethyl-3-phenylthieno[2′,3′:5,6]pyrido[2,3-d]pyrimidine-4,5(3H,9H)-dione], the Emax is 115% in experiment [1] and 188% in experiment [2]. The AC50 in experiment [1] was 5.7 µM; in experiment [2], 2.6 µM.

As to `Cc1scc2c(=O)c3c(=O)n(-c4ccccc4)c(C4CCC4)nc3n(C)c12` [Example 2.16, 2-cyclobutyl-8,9-dimethyl-3-phenylthieno[3′,4′:5,6]pyrido[2,3-d]pyrimidine-4,5(3H,9H)-dione], the Emax amounted to 150% in experiment [1] and 199% in experiment [2]. The AC50 in experiment [1] is 12.3 µM; in experiment [2], 4.6 µM.

With `Cn1c2cc(Cl)sc2c(=O)c2c(=O)n(-c3ccccc3)c(C3CCC3)nc21` [Example 2.17, 7-chloro-2-cyclobutyl-9-methyl-3-phenylthieno[2′,3′:5,6]pyrido[2,3-d]pyrimidine-4,5(3H,9H)-dione], in experiment [1], the Emax worked out at 128% and the activity was half-maximal at 10 µM (AC50). Besides, in experiment [2], the Emax came to 151% and the AC50 came to 4 µM.

With `Cn1c2nc(C3CCC3)n(-c3ccccc3)c(=O)c2c(=O)c2cc(Cl)sc21` [Example 2.18, 7-chloro-2-cyclobutyl-9-methyl-3-phenylthieno[3′,2′:5,6]pyrido[2,3-d]pyrimidine-4,5(3H,9H)-dione], in experiment [1], the Emax amounted to 200% and half-maximal activity (AC50) was put at 11 µM. In experiment [2], the Emax stood at 154% and the AC50 came to 3.3 µM.

`CC(C)c1nc2c(c(=O)c3cc(Cl)sc3n2C)c(=O)n1-c1ccccc1` [Example 2.19]: the Emax in experiment [1] turned out to be 16%. Moreover, in experiment [2], the Emax is 104% and the AC50 was 15 µM.

On to `CC(C)c1nc2c(c(=O)c3sc(Cl)cc3n2C)c(=O)n1-c1ccccc1` [Example 2.20, 7-chloro-2-isopropyl-9-methyl-3-phenylthieno[2′,3′:5,6]pyrido[2,3-d]pyrimidine-4,5(3H,9H)-dione], for which the Emax in experiment [1] turned out to be 7%. Besides, in experiment [2], the Emax came out at 70% and the AC50 was found to be 19 µM.

With `Cc1csc2c(=O)c3c(=O)n(-c4ccccc4)c(C(C)C)nc3[nH]c12` [Example 2.21, 2-isopropyl-8-methyl-3-phenylthieno[2′,3′:5,6]pyrido[2,3-d]pyrimidine-4,5(3H,9H)-dione], the Emax in experiment [1] worked out at 25%. Besides, in experiment [2], the Emax is 180% and the activity was half-maximal at 14 µM (AC50).

Take `Cc1csc2c(=O)c3c(=O)n(-c4ccccc4)c(C(C)C)nc3n(C)c12` [Example 2.22, 2-isopropyl-8,9-dimethyl-3-phenylthieno[2′3′:5,6]pyrido[2,3-d]pyrimidine-4,5(3H,9H)-dione]: the Emax in experiment [1] is 8%. Further, in experiment [2], the Emax is 166% and the activity was half-maximal at 16 µM (AC50).

Take `CC(C)c1nc2[nH]c3c(c(=O)c2c(=O)n1-c1ccccc1)CCCCC3` [Example 3.1, 2-isopropyl-3-phenyl-7,8,9,10-tetrahydro-3H-cyclohepta[5,6]pyrido[2,3-d]pyrimidine-4,5(6H,11H)-dione]: in experiment [1], the Emax is 9% and half-maximal activity (AC50) was put at 1.4 µM. Further, in experiment [2], the Emax is 190% and the AC50 stood at 13 µM.

As for `CC(C)c1nc2c(c(=O)c3c(n2C)CCCCC3)c(=O)n1-c1ccccc1` [Example 3.2, 2-isopropyl-11-methyl-3-phenyl-7,8,9,10-tetrahydro-3H-cyclohepta[5,6]pyrido[2,3-d]pyrimidine-4,5(6H,11H)-dione], in experiment [1], the Emax was 83% and the activity was half-maximal at 12 µM (AC50). Besides, in experiment [2], the Emax was determined as 213% and the activity was half-maximal at 11 µM (AC50).

On to `CC(C)c1nc2[nH]c3c(c(=O)c2c(=O)n1-c1ccccc1)CCC3` [Example 3.3, 2-isopropyl-3-phenyl-7,8-dihydro-3H-cyclopenta[5,6]pyrido[2,3-d]pyrimidine-4,5(6H,9H)-dione], for which the Emax in experiment [1] came to 8%; in experiment [2] it was 112%. Besides, the AC50 in experiment [2] amounted to 21 µM.

As for `CC(C)c1nc2c(c(=O)c3c(n2C)CCC3)c(=O)n1-c1ccccc1` [Example 3.4, 2-isopropyl-9-methyl-3-phenyl-7,8-dihydro-3H-cyclopenta[5,6]pyrido[2,3-d]pyrimidine-4,5(6H,9H)-dione], in experiment [1], the Emax stood at 8% and the activity was half-maximal at 1.4 µM (AC50). Besides, in experiment [2], the Emax worked out at 40% and the AC50 is 18 µM.

As to `Cc1[nH]c2nc(C(C)C)n(-c3ccccc3)c(=O)c2c(=O)c1C` [Example 3.5, 2-isopropyl-6,7-dimethyl-3-phenylpyrido[2,3-d]pyrimidine-4,5(3H,8H)-dione], the Emax in experiment [1] is 9%. In experiment [2], the Emax was 114% and half-maximal activity (AC50) was put at 17 µM.

Take `CC1CCc2c([nH]c3nc(C(C)C)n(-c4ccccc4)c(=O)c3c2=O)C1` (centres unmarked) [Example 3.6, 2-isopropyl-8-methyl-3-phenyl-6,7,8,9-tetrahydropyrimido[4,5-b]quinoline-4,5(3H,10H)-dione]: the Emax in experiment [1] worked out at 10%. In experiment [2], the Emax was found to be 46% and the AC50 was found to be 27 µM.

Take `Cc1c(C)n(C)c2nc(C(C)C)n(-c3ccccc3)c(=O)c2c1=O` [Example 3.7, 2-isopropyl-6,7,8-trimethyl-3-phenylpyrido[2,3-d]pyrimidine-4,5(3H,8H)-dione]: the Emax in experiment [1] is 14%. Besides, in experiment [2], the Emax came out at 61% and the AC50 was determined as 22 µM.

Turning to `CC1CCc2[nH]c3nc(C(C)C)n(-c4ccccc4)c(=O)c3c(=O)c2C1` (centres unmarked) [Example 3.8, 2-isopropyl-7-methyl-3-phenyl-6,7,8,9-tetrahydropyrimido[4,5-b]quinoline-4,5(3H,10H)-dione], in experiment [1], the Emax amounted to 12% and the AC50 amounted to 1.3 µM. Besides, in experiment [2], the Emax is 219% and half-maximal activity (AC50) was put at 12 µM.

Regarding `CC1CCc2c(n(C)c3nc(C(C)C)n(-c4ccccc4)c(=O)c3c2=O)C1` (centres unmarked) [Example 3.9, 2-isopropyl-8,10-dimethyl-3-phenyl-6,7,8,9-tetrahydropyrimido[4,5-b]quinoline-4,5(3H,10H)-dione], the Emax in experiment [1] is 15%. In experiment [2], the Emax was determined as 11% and the activity was half-maximal at 11 µM (AC50).

Turning to `CC1CCc2c(c(=O)c3c(=O)n(-c4ccccc4)c(C(C)C)nc3n2C)C1` (centres unmarked) [Example 3.10, 2-isopropyl-7,10-dimethyl-3-phenyl-6,7,8,9-tetrahydropyrimido[4,5-b]quinoline-4,5(3H,10H)-dione], the Emax in experiment [1] was found to be 6%; in experiment [2], 237%. In addition, in experiment [2], the AC50 was 12 µM.

For `CC(C)c1nc2c(c(=O)c3c(n2C)CCCC3)c(=O)n1-c1ccccc1` [Example 3.11, 2-isopropyl-10-methyl-3-phenyl-6,7,8,9-tetrahydropyrimido[4,5-b]quinoline-4,5(3H,10H)-dione], the Emax in experiment [1] amounted to 17%. In experiment [2], the Emax turned out to be 137% and the activity was half-maximal at 22 µM (AC50).
